Tests used:
HUVEC = assay: matrigel endothelial cell tube formation assay; assay type: cell-based, human
Procedure: The effect of AEPI-1 on endothelial cell function was assessed in vitro in a matrigel endothelial cell tube formation assay. […] In contrast, addition of recombinant legumain dramatically promoted and accelerated tube formation (FIG. 4D). HUVEC tube formation was observed as early as 5 hours after assay initiation when legumain was added. Under normal conditions 24 hours were required for the vascular tubes to form.

[1] = tested on: angiogenesis in Matrigel plugs; assay: Matrigel plug angiogenesis assay in vivo; set-up: species or system Balb C nu/nu mice
Procedure: The effect of AEPI-1 on angiogenesis was further investigated in vivo using a Matrigel plug assay. Matrigel containing FGF-2 was injected subcutaneously into Balb C nu/nu mice.
The effect of AEPI-1 on angiogenesis induced by cancer cells was then investigated by including human breast cancer cells (MDA-MB-231 cells) in the Matrigel plugs. The cancer cells produced a spectrum of angiogenic factors and induced robust angiogenic vessel growth (FIG. 5C).

legumain = target: T1, legumain (Mus musculus, UniProt O89017); assay: legumain activity in tissues after systemic administration of AEPI-1; assay type: in vivo, mice
T1 construct: from tissue
T1 sequence (O89017 18-325): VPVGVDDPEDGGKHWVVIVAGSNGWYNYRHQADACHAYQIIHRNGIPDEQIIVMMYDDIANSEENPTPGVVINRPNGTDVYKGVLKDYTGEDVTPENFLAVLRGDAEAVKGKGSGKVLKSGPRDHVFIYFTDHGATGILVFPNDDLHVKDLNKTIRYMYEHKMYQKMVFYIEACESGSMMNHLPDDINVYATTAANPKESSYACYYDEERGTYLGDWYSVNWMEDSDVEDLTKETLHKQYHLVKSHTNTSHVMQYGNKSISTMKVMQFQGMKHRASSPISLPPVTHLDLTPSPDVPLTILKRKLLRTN

[2] = target: legumain cleavage of caspase 9 (Homo sapiens, UniProt Q99538); assay: caspase 9 activity after legumain cleavage; assay type: biochemical
Text: Legumain catalytically inactivates caspase 9. In addition to suppression of cathepsin B, legumain efficiently inactivates caspase 9 and depletes the cell of pro-caspase 9 (FIG. 20A). […] Loss of pro-caspase 9 led to reduced caspase 3 activation in a reconstituted apoptosome system (FIG. 20D), which was further confirmed by detection of reduced caspase 3 activity (FIG. 20E). These observations indicate that asparaginyl endopeptidases play a critical role in cell survival and tumorigenesis.

Chain of legumain cleavage of caspase 9 (Q99538 18-323, species assumed): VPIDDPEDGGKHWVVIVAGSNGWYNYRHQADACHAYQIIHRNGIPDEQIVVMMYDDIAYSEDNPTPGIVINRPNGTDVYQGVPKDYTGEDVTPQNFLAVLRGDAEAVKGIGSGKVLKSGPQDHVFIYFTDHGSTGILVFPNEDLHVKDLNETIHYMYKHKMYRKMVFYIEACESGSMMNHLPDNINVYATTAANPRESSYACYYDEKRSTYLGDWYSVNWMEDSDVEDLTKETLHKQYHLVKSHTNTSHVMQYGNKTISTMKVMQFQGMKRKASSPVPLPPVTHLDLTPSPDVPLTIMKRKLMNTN

cell permeability (legumain; inferred from tumor vs kidney legumain activity): substantially impermeable to cells
legumain activity in kidney (legumain; systemic administration): does not affect
loss of caspase 9 activity caused by legumain cleavage [2]: inhibited
Compound: CCOC(=O)C1OC1C(=O)N(CC(N)=O)NC(=O)[C@H](C)NC(=O)[C@H](C)NC(=O)OCc1ccccc1 (stereo partly drawn) [AEPI-1, Cbz-Ala-Ala-AzaAsn-(S,S)-EPCOOEt]
concentration at which inhibition of tube formation was apparent (HUVEC; HUVEC, matrigel): 100 nM
concentration at which tube formation was completely inhibited (HUVEC; HUVEC, matrigel): 600 nM
hypoxia induced tube formation (HUVEC; hypoxic conditions): inhibited
HUVEC tube formation (HUVEC; matrigel, normal conditions): suppressed HUVEC tube formation in a dose dependent manner
cancer cell-induced angiogenesis in the plug ([1]; MDA-MB-231 cells in the Matrigel plugs): essentially completely inhibited
FGF-2 induced vessel formation in the plug ([1]; Matrigel containing FGF-2 s.c., gross appearance, hemoglobin content, histology): significantly inhibited
legumain activity in 4T1 tumors (legumain; systemic administration): inhibited legumain activity in 4T1 tumors

Source: patent US20110300147A9, “Inhibiting tumor cell invasion, metastasis and angiogenesis” (The Scripps Research institute, priority 2005, published 2011)
